Test results published in patent publication US20220395553A1, “CXCR4 ANTAGONIST PEPTIDES” (COHBAR, INC., priority 2019, published 2022).
Square brackets hold non-standard residues; d marks the D form. Peptide text beside a SMILES is read from it.

Key:
[1] = tested on: A172 human brain glioblastoma cell line; assay: Caspase 3/7 activity (Caspase-Glo 3/7) in cultured cells; format: cell-based; conditions: peptide 10 μM, 18-20 hours, relative to 0.1% DMSO control
Method: The effect of the peptides on cell death/survival can be assessed using a caspase-3/7 assay in cultured cells. Peptides were dissolved at 10 mM in DMSO as stock solutions for use at a final concentration of 10 μM. […] Caspase-Glo 3/7 Assay Reagent was purchased from Promega (Madison, Wis.). A172 human brain glioblastoma cell line was purchased from American Type Culture Collection (Manassas, Va.). A172 cells were grown in DMEM supplemented with 10% FBS with 100 IU/ml penicillin and 100 μg/ml streptomycin. Cultures were maintained at 37° C. in a humidified atmosphere of 5% CO2/95% air. A172 cells were seeded at 8,000 cells per well on 96-well plates. […] Caspase 3/7 activity was determined using a Caspase-Glo 3/7 Assay kit (Promega) according to the manufacturer's instructions. Luminescence for each sample well on the plate was measured using a Cytation 3 plate reader (BioTek, Winooski, Vt.). Activity was calculated relative to 0.1% DMSO control.

[2] = Cell viability, PrestoBlue assay; format: cell-based; conditions: human
Method: The effect of the peptides on cell viability can be assessed in cultured cells using suitable assay of viability such as the PrestoBlue® assay (Thermo Fisher Scientific, Waltham, Mass.). Peptides were initially prepared as 10 mM stock in DMSO and tested at a final concentration of 10 μM (0.1% DMSO). […] PrestoBlue Assay Reagent was purchased from Thermo Fisher Scientific. A172 human brain glioblastoma cell line was purchased from American Type Culture Collection (Manassas, Va.). A172 cells were grown in DMEM supplemented with 10% FBS with 100 IU/ml penicillin and 100 μg/ml streptomycin. Cultures were maintained at 37° C. in a humidified atmosphere of 5% CO2/95% air. A172 cells were seeded at 8,000 cells per well on 96-well plates. […] Cell viability was determined using a PrestoBlue Assay reagent […] according to the manufacturer's instructions. Absorption for each sample well on the plate was measured using a Cytation 3 plate reader at 560 nm and 590 nm (BioTek, Winooski, Vt.). Activity was calculated relative to 0.1% DMSO untreated control. Treatment with 0.1% DMSO alone was used as the cell viability activity control. The relative standard deviation of the DMSO control was <5%.

3T3-L1 Mouse Adipocytes = assay: Free fatty acid levels in cultured mouse adipocytes; format: cell-based; conditions: peptide 10 μM, 20-22 hours then 3 hours with 1 nM isoproterenol; relative to isoproterenol treated cells
Method: The effect of the peptides on fatty acid metabolism can be assessed using an assay of free fatty acid levels in cultured cells such as mouse adipocytes. Peptides were initially prepared as 10 mM stock in DMSO and used at a final concentration of 10 μM (0.1% DMSO). […] Mouse 3T3-L1 cells purchased from ZenBio were seeded at 3,000 cells per well in 96-well plates in Pre-adipocyte Medium (Zen-Bio) and grown to confluence at 37° C. in a humidified atmosphere of 5% CO2/95% air. Two days after confluence, cells were placed in Adipocyte Differentiation Medium (Zen-Bio) and cultured for three additional days at 37° C. in a humidified atmosphere of 5% CO2/95% air. The culture media was then replaced with Adipocyte Maintenance Medium (Zen-Bio) and the cells maintained for an additional 9-12 days at 37° C. in a humidified atmosphere of 5% CO2/95% air with partial medium replacement every other day. Following 12-15 days of differentiation, test peptides were added at a final concentration of 10 μM in 0.1% DMSO and incubated for 20-22 hours in Adipocyte Maintenance Medium at 37° C. in a humidified atmosphere of 5% CO2/95% air. After 20-22 hours, 1 nM isoproterenol was added to all wells except untreated controls and test peptides were replenished. Insulin at 100 nM was added to control wells. Cells were incubated for 3 hours in Assay Buffer (Zen-Bio) at 37° C. in a humidified atmosphere of 5% CO2/95% air. Free fatty acid concentrations in the media were determined using a Free Fatty Acid Assay kit (Zen-Bio) according to the manufacturer's instructions using a Cytation 3 plate reader at 540 nm (BioTek, Winooski, Vt.). Absorbance values were corrected for untreated background and expressed relative to isoproterenol treated cells. Treatment with isoproterenol (1 nM) alone was used as the free fatty acid level stimulatory control. The relative standard deviation of the isoproterenol control was <10%. […] Free fatty acid levels for insulin (100 nM) treatment were <5% of the isoproterenol control value.

Jurkat cells = assay: CXCL12 mediated cell migration, Jurkat cells; format: cell-based, human; conditions: 1.1 μM test article, 100 ng/ml CXCL12, 1 hour
Outline: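 Jurkat cells in serum-free RPMI with 0.5% BSA, 250,000 per upper chamber of a 5 μm Transwell, with peptides at 1.1 μM final. Migration toward CXCL12 ran 1 h at 37 °C in 5% CO2. Cells reaching the lower chamber quantified by ATP luminescence (CellTiter-Glo 2.0).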

human CXCR4 [3] = biological target: T1, human CXCR4 (Homo sapiens, UniProt P61073); assay: IC50 for CXCR4/CXCL12 ligand binding, HTRF format (Example 24); set-up: host or cells: HEK293 (Tag-lite CXCR4 cells, frozen aliquots, transient expression)
Method: Peptides were initially prepared as 1 mM stock in H2O. […] Following the manufacture's protocol, a frozen aliquot of Tag-lite CXCR4 cells was thawed and immediately seeded onto 384-well plates in TLB. […] The plates were covered in aluminum foil and left at room temperature for 3 hours. Following the 3 hour incubation period, the plates were removed from the incubator and fluorescence measured using a Cytation 1 plate reader using a HTRF filter cube ([…]; BioTek; Winooski, Vt.).

human CXCR4 [4] = biological target: T1, human CXCR4; assay: IC50 for inhibition of β-Arrestin recruitment (Example 19); format: cell-based; set-up: host or cells: C2C12 (mouse myoblast) CXCR4 β-Arrestin PathHunter cell line
From the text: C2C12 CXCR4 β-Arrestin cells were seed onto 384-well plates in standard medium.

T1 sequence (P61073 whole entry): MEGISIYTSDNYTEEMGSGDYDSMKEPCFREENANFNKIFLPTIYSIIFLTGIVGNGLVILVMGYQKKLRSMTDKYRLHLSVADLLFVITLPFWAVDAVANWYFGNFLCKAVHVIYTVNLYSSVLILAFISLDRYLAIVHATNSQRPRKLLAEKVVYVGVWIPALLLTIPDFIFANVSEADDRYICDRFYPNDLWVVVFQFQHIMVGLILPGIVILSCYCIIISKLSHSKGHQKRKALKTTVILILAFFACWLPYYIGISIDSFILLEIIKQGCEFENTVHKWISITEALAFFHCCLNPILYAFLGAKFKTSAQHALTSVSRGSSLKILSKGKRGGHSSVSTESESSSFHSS

| IC50 (human CXCR4 [3]) | IC50 (human CXCR4 [4]) | Structure (SMILES) | Caspase 3/7 Activity, Percent of Control Activity [1] | viability at 10 μM [2] | Free Fatty Acid Levels, MEAN % ISO (3T3-L1 Mouse Adipocytes) | Percent Inhibition of CXCL12 Mediated Migration (1.1 μM Test Article) (Jurkat cells) |
| --- | --- | --- | --- | --- | --- | --- |
| 6 nM |  | CC(C)C[C@H](NC(=O)[C@H](CO)NC(=O)[C@H](CO)NC(=O)[C@H](CCCNC(=N)N)NC(=O)[C@@H](NC(=O)[C@H](CO)NC(=O)[C@H](Cc1c[nH]cn1)NC(=O)[C@H](Cc1c[nH]cn1)NC(=O)[C@H](Cc1ccc(O)cc1)NC(=O)[C@H](CCCNC(=N)N)NC(=O)[C@H](CCC(=O)O)NC(=O)[C@@H](N)CC(C)C)C(C)C)C(=O)N[C@@H](CCCNC(=N)N)C(=O)N1CCC[C@H]1C(=O)N[C@@H](Cc1ccc(O)cc1)C(=O)N[C@H](C(=O)N[C@@H](CCCCN)C(=O)O)[C@@H](C)O [compound 4] (H-LERYHHSVRSSLRPYTK-OH; N-terminus and C-terminus assumed) | 107.7% | 96% | 92.3% | 77% |
|  |  | CC(C)C[C@H](NC(=O)[C@H](CO)NC(=O)[C@H](CO)NC(=O)[C@H](CCCNC(=N)N)NC(=O)[C@@H](NC(=O)[C@H](CO)NC(=O)[C@H](Cc1c[nH]cn1)NC(=O)[C@H](Cc1c[nH]cn1)NC(=O)[C@H](Cc1ccc(O)cc1)NC(=O)[C@H](CCCNC(=N)N)NC(=O)[C@H](CCCNC(=N)N)NC(=O)[C@@H](N)CC(C)C)C(C)C)C(=O)N[C@@H](CCCNC(=N)N)C(=O)N1CCC[C@H]1C(=O)N[C@@H](Cc1ccc(O)cc1)C(=O)N[C@H](C(=O)N[C@@H](CCCCN)C(=O)O)[C@@H](C)O [compound 3] (H-LRRYHHSVRSSLRPYTK-OH; N-terminus and C-terminus assumed) | 121.4% | 97.3% | 82.0% | 66% |
| 33 nM | 121 nM | CC(C)C[C@H](NC(=O)[C@H](CO)NC(=O)[C@H](CO)NC(=O)[C@H](CCCNC(=N)N)NC(=O)[C@@H](C)NC(=O)[C@H](CO)NC(=O)[C@H](Cc1c[nH]cn1)NC(=O)[C@H](Cc1c[nH]cn1)NC(=O)[C@H](Cc1ccc(O)cc1)NC(=O)[C@H](CCCNC(=N)N)NC(=O)[C@H](CCC(=O)O)NC(=O)[C@@H](N)CC(C)C)C(=O)N[C@@H](CCCNC(=N)N)C(=O)N1CCC[C@H]1C(=O)N[C@@H](Cc1ccc(O)cc1)C(=O)N[C@H](C(=O)O)[C@@H](C)O [compound 5] (H-LERYHHS[dA]RSSLRPYT-OH; N-terminus and C-terminus assumed) | 104.7% | 98.8% | 86.9% | 46% |
|  |  | CSCC[C@H](N)C(=O)N[C@@H](CC(C)C)C(=O)N[C@@H](CCCNC(=N)N)C(=O)N[C@@H](CCCNC(=N)N)C(=O)N[C@@H](Cc1ccc(O)cc1)C(=O)N[C@@H](Cc1c[nH]cn1)C(=O)N[C@@H](Cc1c[nH]cn1)C(=O)N[C@@H](CO)C(=O)N[C@H](C(=O)N[C@@H](CCCNC(=N)N)C(=O)N[C@@H](CO)C(=O)N[C@@H](CO)C(=O)N[C@@H](CC(C)C)C(=O)N[C@@H](CCCNC(=N)N)C(=O)N1CCC[C@H]1C(=O)N[C@@H](Cc1ccc(O)cc1)C(=O)N[C@H](C(=O)N[C@@H](CCCCN)C(=O)O)[C@@H](C)O)C(C)C [compound 2] (H-MLRRYHHSVRSSLRPYTK-OH; N-terminus and C-terminus assumed) | 96.7% | 96.4% | 83.2% | 4% |
